In the Kinase Knowledgebase extract (Sharma et al. 2016):

The compounds below were run against MAPK14 (human) (UniProt Q16539) (assay: Inhibition of MAPK14 Kinase Activity).
MAPK14 (human), sequence (Q16539 whole entry, looked up): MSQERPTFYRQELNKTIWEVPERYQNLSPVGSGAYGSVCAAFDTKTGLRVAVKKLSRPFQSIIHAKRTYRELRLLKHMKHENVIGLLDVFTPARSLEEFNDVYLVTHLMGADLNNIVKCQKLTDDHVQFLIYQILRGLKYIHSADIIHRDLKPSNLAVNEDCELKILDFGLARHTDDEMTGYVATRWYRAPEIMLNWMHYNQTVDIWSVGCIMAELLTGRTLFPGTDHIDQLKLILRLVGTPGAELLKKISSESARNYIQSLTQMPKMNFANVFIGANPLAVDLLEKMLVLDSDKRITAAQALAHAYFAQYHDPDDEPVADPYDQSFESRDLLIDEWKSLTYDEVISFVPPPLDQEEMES

Compound	IC50 [nM]
CC(C)NC(=O)c1csc(-c2c(-c3ccc(F)cc3)n[nH]c2C2CCN(C(=O)c3ccccn3)CC2)n1	≤ 1000
COc1ccc(-c2ccccc2)cc1NCc1onc(-c2ccc(F)cc2)c1-c1nc(C(=O)NC(C)C)cs1	≤ 1000
CC(C)NC(=O)c1csc(-c2c(-c3ccc(F)cc3)ncn2C2CCNCC2)n1	≤ 1000
CC(C)NC(=O)c1csc(-c2oc(CNC(=O)Cc3c(F)cccc3F)nc2-c2ccc(F)cc2)n1	≤ 1000
Cc1nc(-c2ccc(F)cc2)c(-c2nc(C(=O)NCCCO)cs2)s1	≤ 1000
CC(C)NC(=O)c1csc(-c2oc(CN3CCOCC3)nc2-c2ccc(F)cc2)n1	≤ 1000
CCCCOc1ccc(C(=O)N2CCC(c3[nH]nc(-c4ccc(F)cc4)c3-c3nc(C(=O)NC(C)C)cs3)CC2)cc1	≤ 1000
Cc1cccc(CCC(=O)N2CCN(Cc3nc(-c4ccc(F)cc4)c(-c4nc(C(=O)NC(C)C)cs4)o3)CC2)c1	≤ 1000
CC(C)NC(=O)c1csc(-c2oc(CNC(=O)c3cccc(Cl)c3Cl)nc2-c2ccc(F)cc2)n1	≤ 1000
CC(C)NC(=O)c1csc(-c2c(-c3ccc(F)cc3)n[nH]c2C2CCN(C(=O)C3CC(O)CN3C(=O)OC(C)(C)C)CC2)n1 (stereo not drawn)	≤ 1000
O=C(NCCO)c1csc(-c2c(-c3ccc(F)cc3)n[nH]c2C2CCNCC2)n1	≤ 1000
CC(C)NC(=O)c1csc(-c2oc(CNC(=O)c3cc4cc(Cl)ccc4o3)nc2-c2ccc(F)cc2)n1	≤ 1000
CC(C)NC(=O)c1csc(-c2c(-c3ccc(F)cc3)n[nH]c2C2CCN(C(=O)c3ccncc3Cl)CC2)n1	≤ 1000
Cc1c(C(=O)N2CCC(c3[nH]nc(-c4ccc(F)cc4)c3-c3nc(C(=O)NC(C)C)cs3)CC2)oc2ccccc12	≤ 1000
COc1ccccc1NC(=O)c1csc(-c2sc(C)nc2-c2ccc(F)cc2)n1	≤ 1000
CC(C)NC(=O)n1ccc(-c2c(-c3ccc(F)cc3)noc2CN(C)C)n1	≤ 1000
CC(C)NC(=O)c1csc(-c2oc(CN3CCN(C(=O)c4ccc(Oc5ccccc5)cc4)CC3)nc2-c2ccc(F)cc2)n1	≤ 1000
CCOC(=O)CC(=O)N1CCN(Cc2nc(-c3ccc(F)cc3)c(-c3nc(C(=O)NC(C)C)cs3)o2)CC1	≤ 1000
CCNC(=O)c1csc(-c2sc(C)nc2-c2ccc(F)cc2)n1	≤ 1000
CC(C)NC(=O)c1csc(-c2oc(CNC(=O)c3ccc(O)cc3O)nc2-c2ccc(F)cc2)n1	≤ 1000
Cc1nc(-c2ccc(F)cc2)c(-c2nc(C(=O)NCCc3ccc(O)cc3)cs2)s1	≤ 1000

Compound	IC50 [nM]
COc1cc(C=CC(=O)NCc2nc(-c3ccc(F)cc3)c(-c3nc(C(=O)NC(C)C)cs3)o2)ccc1O	≤ 1000
Cc1[nH]nc(-c2ccc(F)cc2)c1-c1nc(C(=O)NCC2CC2)cs1	≤ 1000
CC(C)NC(=O)c1csc(-c2oc(CNC(=O)c3cccnc3Cl)nc2-c2ccc(F)cc2)n1	≤ 1000
CC(C)NC(=O)c1csc(-c2oc(CNC(=O)Cc3cccc(O)c3)nc2-c2ccc(F)cc2)n1	≤ 1000
CC(C)NC(=O)c1csc(-c2oc(CN3CCN(C(=O)c4c(F)c(F)c(F)c(F)c4F)CC3)nc2-c2ccc(F)cc2)n1	≤ 1000
CC(=O)Oc1ccccc1C(=O)NCc1onc(-c2ccc(F)cc2)c1-c1nc(C(=O)NC(C)C)cs1	≤ 1000
Cc1ccc(S(=O)(=O)NCCNC(=O)c2csc(-c3sc(C)nc3-c3ccc(F)cc3)n2)cc1	≤ 1000
CC(C)NC(=O)c1csc(-c2c(-c3ccc(F)cc3)noc2C2CCN(C(=O)CO)CC2)n1	≤ 1000
COc1cc2c(cc1OC)CN(C(=O)c1csc(-c3sc(C)nc3-c3ccc(F)cc3)n1)CC2	≤ 1000
CC(C)NC(=O)c1csc(-c2oc(CNC(=O)C(Cc3ccccc3)NC(=O)OC(C)(C)C)nc2-c2ccc(F)cc2)n1 (stereo not drawn)	≤ 1000
Cc1nc(-c2ccc(F)cc2)c(-c2nc(C(=O)NCCCNC(=O)OC(C)(C)C)cs2)s1	≤ 1000
Cc1nc(-c2ccc(F)cc2)c(-c2nc(C(=O)NCc3ccccc3Cl)cs2)s1	≤ 1000
Cc1nc(-c2ccc(F)cc2)c(-c2nc(C(=O)N3CCCC3CO)cs2)s1 (stereo not drawn)	≤ 1000
CC(C)C(CO)NC(=O)c1csc(-c2c(-c3ccc(F)cc3)n[nH]c2C2CCNCC2)n1 (stereo not drawn)	≤ 1000
Cc1nc(-c2ccc(F)cc2)c(-c2nc(C(=O)NCCCN3CCCC3=O)cs2)s1	≤ 1000
CC(C)NC(=O)c1csc(-c2oc(CNC(=O)c3ccc(C=O)cc3)nc2-c2ccc(F)cc2)n1	≤ 1000
COc1ccc(C(=O)N2CCN(Cc3nc(-c4ccc(F)cc4)c(-c4nc(C(=O)NC(C)C)cs4)o3)CC2)c(O)c1	≤ 1000
CC(C)NC(=O)c1csc(-c2c(-c3ccc(F)cc3)n[nH]c2C2CCN(C(=O)Cc3ccccc3O)CC2)n1	≤ 1000
COCC(=O)N1CCC(c2[nH]nc(-c3ccc(F)cc3)c2-c2nc(C(=O)NC(C)C)cs2)CC1	≤ 1000
Cc1nc(-c2ccc(F)cc2)c(-c2nc(C(=O)NC(C)C)cs2)[nH]1	≤ 1000
CC(C)NC(=O)c1csc(-c2oc(CN(C)C)nc2-c2ccc(F)cc2)n1	≤ 1000

Compound	IC50 [nM]
CC(C)NC(=O)c1csc(-c2oc(CNC(=O)c3ccc(Oc4cccc(O)c4)cc3)nc2-c2ccc(F)cc2)n1	≤ 1000
CC(C)NC(=O)c1csc(-c2[nH]c(CO)nc2-c2ccc(F)cc2)n1	≤ 1000
CC(=O)Nc1cccc(C(=O)N2CCN(Cc3nc(-c4ccc(F)cc4)c(-c4nc(C(=O)NC(C)C)cs4)o3)CC2)c1	≤ 1000
COc1ccc(C(=O)N2CCN(Cc3nc(-c4ccc(F)cc4)c(-c4nc(C(=O)NC(C)C)cs4)o3)CC2)cc1O	≤ 1000
COc1ccc(OC)c(CCNC(=O)c2csc(-c3sc(C)nc3-c3ccc(F)cc3)n2)c1	≤ 1000
Cc1nc(-c2ccc(F)cc2)c(-c2nc(C(=O)NCCc3ccc(S(N)(=O)=O)cc3)cs2)s1	≤ 1000
Cc1ccccc1C(=O)N1CCC(c2[nH]nc(-c3ccc(F)cc3)c2-c2nc(C(=O)NC(C)C)cs2)CC1	≤ 1000
CC(C)NC(=O)c1csc(-c2oc(CNC(=O)c3ccncc3Cl)nc2-c2ccc(F)cc2)n1	≤ 1000
Cc1nc(-c2ccc(F)cc2)c(-c2nc(C(=O)NCc3cccs3)cs2)s1	≤ 1000
CC(C)NC(=O)c1csc(-c2oc(CNC(=O)c3cc(F)ccc3[N+](=O)[O-])nc2-c2ccc(F)cc2)n1	≤ 1000
Cc1cccc(C(=O)NCc2nc(-c3ccc(F)cc3)c(-c3nc(C(=O)NC(C)C)cs3)o2)c1[N+](=O)[O-]	≤ 1000
O=C(NCC1CC1)c1csc(-c2c(-c3ccc(F)cc3)n[nH]c2C2CCNCC2)n1	≤ 1000
CCC(C)NC(=O)c1csc(-c2c(-c3ccc(F)cc3)n[nH]c2C2CCNCC2)n1 (stereo not drawn)	≤ 1000
O=C(NCc1cccnc1)c1csc(-c2c(-c3ccc(F)cc3)n[nH]c2C2CCNCC2)n1	≤ 1000
CC(C)NC(=O)c1csc(-c2oc(CNC(=O)C=Cc3ccccc3)nc2-c2ccc(F)cc2)n1	≤ 1000
CC(C)NC(=O)c1csc(-c2oc(CNCCC(C)(C)C)nc2-c2ccc(F)cc2)n1	≤ 1000
Cc1nc(-c2ccc(F)cc2)c(-c2nc(C(=O)NCCc3ccc(Cl)cc3)cs2)s1	≤ 1000
COc1ccc(C(=O)N2CCN(Cc3nc(-c4ccc(F)cc4)c(-c4nc(C(=O)NC(C)C)cs4)o3)CC2)c(OC)c1	≤ 1000
CC(C)NC(=O)c1csc(-c2oc(CN3CCN(C(=O)c4ccc(-c5ccc(O)cc5)cc4)CC3)nc2-c2ccc(F)cc2)n1	≤ 1000
CC(C)NC(=O)c1csc(-c2oc(CNC(=O)CCc3ccccc3O)nc2-c2ccc(F)cc2)n1	≤ 1000
CC(C)NC(=O)c1csc(-c2oc(CNCc3ccccn3)nc2-c2ccc(F)cc2)n1	≤ 1000
